From ChEMBL document CHEMBL5360532, “Current scenario of quinolone hybrids with potential antibacterial activity against ESKAPE pathogens” (Eur J Med Chem, 2023)
Converted amounts (≈) assume the structure as drawn.

Experiments:
MDA-MB-231 = assay: Growth inhibition of human MDA-MB-231 cells measured after 48 hrs by SRB assay; format: functional
SiHa = assay: Growth inhibition of human SiHa cells measured after 48 hrs by SRB assay; format: functional
Escherichia coli [1] = assay: Potency index, ratio of ciprofloxacin MIC to test compound MIC for antimicrobial activity against Escherichia coli assessed as bacterial growth inhibition by agar cup diffusion assay; format: functional
Pseudomonas aeruginosa [2] = assay: Antibacterial activity against Pseudomonas aeruginosa ATCC43288 assessed as bacterial growth inhibition measured after 18 to 24 hrs inhibition by broth microdilution assay; format: functional; conditions: time 18-24 hrs
Escherichia coli [3] = assay: Antibacterial activity against Escherichia coli ATCC35218 assessed as bacterial growth inhibition measured after 18 to 24 hrs inhibition by broth microdilution assay; format: functional; conditions: time 18-24 hrs
Pseudomonas aeruginosa [4] = assay: Antibacterial activity against Pseudomonas aeruginosa […] assessed as bacterial growth inhibition measured after 18 to 24 hrs inhibition by broth microdilution assay; format: functional; conditions: time 18-24 hrs
Klebsiella pneumoniae [5] = assay: Antibacterial activity against Klebsiella pneumoniae ATCC 10031 assessed as bacterial growth inhibition by agar dilution method; format: functional
Escherichia coli [6] = assay: Antibacterial activity against Escherichia coli ATCC 8739 assessed as bacterial growth inhibition by agar dilution method; format: functional
Enterobacter cloacae = assay: Antibacterial activity against Enterobacter cloacae PTCC 1003 assessed as bacterial growth inhibition by agar dilution method; format: functional
Klebsiella pneumoniae [7] = assay: Antibacterial activity against Klebsiella pneumoniae ATCC 13883 assessed as bacterial growth inhibition measured after 18 to 24 hrs by two fold microdilution assay; format: functional; conditions: time 18-24 hrs
Escherichia coli [8] = assay: Antibacterial activity against Escherichia coli ATCC 8739 assessed as bacterial growth inhibition measured after 18 to 24 hrs by two fold microdilution assay; format: functional; conditions: time 18-24 hrs
Staphylococcus aureus [9] = assay: Antibacterial activity against Staphylococcus aureus assessed as bacterial growth inhibition by agar cup diffusion assay; format: functional
[10] = tested on: Mycobacterium tuberculosis; assay: Antimycobacterial activity against pan sensitive Mycobacterium tuberculosis R2012-123 assessed as bacterial growth inhibition by agar cup diffusion assay; format: functional
[11] = tested on: Mycobacterium tuberculosis; assay: Antimycobacterial activity against Mycobacterium tuberculosis H37Rv assessed as bacterial growth inhibition by agar cup diffusion assay; format: functional
Klebsiella pneumoniae [12] = assay: Antibacterial activity against Klebsiella pneumoniae assessed as bacterial growth inhibition by agar cup diffusion assay; format: functional
Escherichia coli [13] = assay: Antibacterial activity against Escherichia coli assessed as bacterial growth inhibition by agar cup diffusion assay; format: functional
Escherichia coli [14] = assay: Antibacterial activity against Escherichia coli assessed as bacterial growth inhibition by broth microdilution assay; format: functional
Staphylococcus aureus [15] = assay: Potency index, ratio of norfloxacin MIC to test compound MIC for antimicrobial activity against Staphylococcus aureus assessed as bacterial growth inhibition measured after 18 to 24 hrs inhibition by broth microdilution assay; format: functional; conditions: time 18-24 hrs
Staphylococcus aureus [16] = assay: Antibacterial activity against Staphylococcus aureus assessed as bacterial growth inhibition by broth microdilution assay; format: functional
Staphylococcus aureus [17] = assay: Potency index, ratio of ciprofloxacin MIC to test compound MIC for antimicrobial activity against Staphylococcus aureus assessed as bacterial growth inhibition by agar cup diffusion assay; format: functional
Klebsiella pneumoniae [18] = assay: Antibacterial activity against Klebsiella pneumoniae assessed as bacterial growth inhibition by agar streak dilution assay; format: functional
Staphylococcus aureus [19] = assay: Antibacterial activity against Staphylococcus aureus assessed as bacterial growth inhibition by agar streak dilution assay; format: functional
Escherichia coli [20] = assay: Antibacterial activity against Escherichia coli assessed as bacterial growth inhibition by agar streak dilution assay; format: functional
Escherichia coli [21] = assay: Antibacterial activity against Escherichia coli ATCC 35218 assessed as bacterial growth inhibition measured after 18 to 24 hrs by two fold microdilution assay; format: functional; conditions: ATCC35218, time 18-24 hrs
Staphylococcus aureus [22] = assay: Antibacterial activity against Staphylococcus aureus ATCC 25923 assessed as bacterial growth inhibition measured after 18 to 24 hrs by two fold microdilution assay; format: functional; conditions: time 18-24 hrs
Klebsiella pneumoniae [23] = assay: Antibacterial activity against Klebsiella pneumoniae assessed as bacterial growth inhibition measured after 18 to 24 hrs by two fold microdilution assay; format: functional; conditions: time 18-24 hrs
Escherichia coli [24] = assay: Antibacterial activity against Escherichia coli clinical isolate assessed as zone of inhibition at 50 mg/ml by agar diffusion assay; format: functional; conditions: read-out: IZ
Staphylococcus aureus [25] = assay: Antibacterial activity against Staphylococcus aureus clinical isolate assessed as zone of inhibition at 50 mg/ml by agar diffusion assay; format: functional; conditions: read-out: IZ
Escherichia coli [26] = assay: Antibacterial activity against Escherichia coli ATCC 25922 assessed as zone of inhibition at 50 mg/ml by agar diffusion assay; format: functional; conditions: read-out: IZ
Staphylococcus aureus [27] = assay: Antibacterial activity against Staphylococcus aureus ATCC 25923 assessed as zone of inhibition at 50 mg/ml by agar diffusion assay; format: functional; conditions: read-out: IZ
Candida albicans = assay: Antifungal activity against Candida albicans assessed as fungal growth inhibition by agar well diffusion assay; format: functional
Escherichia coli [28] = assay: Antibacterial activity against Escherichia coli assessed as bacterial growth inhibition by agar well diffusion assay; format: functional, organism-based
Aspergillus niger [29] = assay: Antifungal activity against Aspergillus niger assessed as fungal growth inhibition by agar well diffusion assay; format: functional
Pseudomonas aeruginosa [30] = assay: Antibacterial activity against Pseudomonas aeruginosa assessed as bacterial growth inhibition by agar well diffusion assay; format: functional, organism-based
Staphylococcus aureus [31] = assay: Antibacterial activity against Staphylococcus aureus assessed as bacterial growth inhibition by agar well diffusion assay; format: functional, organism-based
Staphylococcus aureus [32] = assay: Potency index, ratio of ciprofloxacin MIC to test compound MIC for antibacterial activity against Staphylococcus aureus ATCC 25923 assessed as bacterial growth inhibition measured after 18 to 24 hrs by agar dilution assay; format: functional; conditions: time 18-24 hrs
Staphylococcus aureus [33] = assay: Antibacterial activity against Staphylococcus aureus ATCC 25923 assessed as bacterial growth inhibition measured after 18 to 24 hrs by agar dilution assay; format: functional; conditions: time 18-24 hrs
Aspergillus fumigatus = assay: Antifungal activity against Aspergillus fumigatus assessed as fungal growth inhibition by agar cup diffusion assay; format: functional
Aspergillus niger [34] = assay: Antifungal activity against Aspergillus niger assessed as fungal growth inhibition by agar cup diffusion assay; format: functional
Pseudomonas aeruginosa [35] = assay: Antibacterial activity against Pseudomonas aeruginosa assessed as bacterial growth inhibition by agar cup diffusion assay; format: functional

O=C(O)c1cn(C2CC2)c2cc(N3CCN(C(=O)CCSc4nnnn4Cc4ccccc4)CC3)c(F)cc2c1=O
GI50 (MDA-MB-231): 0.08 µM | GI50 (SiHa): 0.07 µM | Ratio (Escherichia coli [1]): 2

O=C(O)c1cn(C2CC2)c2cc(N3CCN(Cn4nc(CN5CCN(c6ccc([N+](=O)[O-])cc6)CC5)oc4=S)CC3)c(F)cc2c1=O
MIC (Pseudomonas aeruginosa [2]): 0.03 µg/mL (≈ 0.0451 µM) | MIC (Escherichia coli [3]): 0.03 µg/mL (≈ 0.0451 µM) | MIC (Pseudomonas aeruginosa [4]): 0.03 µg/mL (≈ 0.0451 µM)

CC(=O)C(C(C)=O)C(=O)c1cn(C2CC2)c2cc(N3CCN(/N=N/c4nc(C)cc(C)n4)CC3)c(F)cc2c1=O
MIC (Klebsiella pneumoniae [5]): 0.015 µg/mL (≈ 0.0274 µM) | MIC (Escherichia coli [6]): 0.015 µg/mL (≈ 0.0274 µM) | MIC (Enterobacter cloacae): 0.015 µg/mL (≈ 0.0274 µM)

O=C(O)c1cn(C2CC2)c2cc(N3CCN(Cn4nc(CN5CCN(c6ccccc6)CC5)n(-c5ccccc5)c4=S)CC3)c(F)cc2c1=O
MIC (Klebsiella pneumoniae [7]): 0.125 µg/mL (≈ 0.18 µM) | MIC (Escherichia coli [8]): 0.125 µg/mL (≈ 0.18 µM)

CCn1c(CN2CCN(c3ccccc3)CC2)nn(CN2CCN(c3cc4c(cc3F)c(=O)c(C(=O)O)cn4C3CC3)CC2)c1=S
MIC (Klebsiella pneumoniae [7]): 0.125 µg/mL (≈ 0.193 µM) | MIC (Escherichia coli [8]): 0.125 µg/mL (≈ 0.193 µM)

C=CCn1c(SCC(=O)N2CCN(c3cc4c(cc3F)c(=O)c(C(=O)O)cn4C3CC3)CC2)nnc1-c1ccccc1
MIC (Staphylococcus aureus [9]): 1.7 µg/mL (≈ 2.89 µM) | MIC [10]: 4 µg/mL (≈ 6.8 µM) | MIC [11]: 4 µg/mL (≈ 6.8 µM) | MIC (Klebsiella pneumoniae [12]): 1.7 µg/mL (≈ 2.89 µM) | MIC (Escherichia coli [13]): 1.7 µg/mL (≈ 2.89 µM)

O=C(O)c1cn(C2CC2)c2cc(N3CCN(Cc4nnc(-c5cccc(O)c5)o4)CC3)c(F)cc2c1=O
MIC (Staphylococcus aureus [9]): 0.3 µg/mL (≈ 0.593 µM) | MIC (Escherichia coli [14]): ≤ 0.125 µg/mL | Ratio (Staphylococcus aureus [15]): >=4 | MIC (Staphylococcus aureus [16]): 0.125 µg/mL (≈ 0.247 µM) | Ratio (Staphylococcus aureus [17]): >=4

COc1c(N2CCN([S+]([O-])c3ccc(N)c(C)c3)C(C)C2)c(F)c(C)c2c(=O)c(C(=O)O)cn(C3CC3)c12 (configuration not stated)
MIC (Klebsiella pneumoniae [18]): 0.9 µg/mL (≈ 1.66 µM) | MIC (Staphylococcus aureus [19]): 0.9 µg/mL (≈ 1.66 µM) | MIC (Escherichia coli [20]): 0.9 µg/mL (≈ 1.66 µM)

CNc1ccc([S+]([O-])N2CCN(c3c(F)c(C)c4c(=O)c(C(=O)O)cn(C5CC5)c4c3OC)CC2C)cc1C (configuration not stated)
MIC (Klebsiella pneumoniae [18]): 0.9 µg/mL (≈ 1.62 µM) | MIC (Staphylococcus aureus [19]): 0.9 µg/mL (≈ 1.62 µM) | MIC (Escherichia coli [20]): 0.9 µg/mL (≈ 1.62 µM)

O=C(O)c1cn(C2CC2)c2cc(N3CCN(Cn4nc(CN5CCN(c6ccc(F)cc6)CC5)n(-c5ccccc5)c4=O)CC3)c(F)cc2c1=O
MIC (Escherichia coli [21]): < 0.24 µg/mL | MIC (Staphylococcus aureus [22]): < 0.24 µg/mL | MIC (Klebsiella pneumoniae [23]): < 0.24 µg/mL

COC(=O)c1cn(C2CC2)c2cc(N3CCN(C(=O)c4nnn(-c5ccc(SC)cc5)c4N)CC3)c(F)cc2c1=O
zone of inhibition at 50000 µg/mL (Escherichia coli [24]): 26.3 mm | zone of inhibition at 50000 µg/mL (Staphylococcus aureus [25]): 26.3 mm | zone of inhibition at 50000 µg/mL (Escherichia coli [26]): 26.3 mm | zone of inhibition at 50000 µg/mL (Staphylococcus aureus [27]): 26.3 mm

C#CCSc1nnc(-c2cn(CC)c3cc(N4CCN(C(=O)C(O)(CC(=O)O)CC(=O)O)CC4)c(F)cc3c2=O)o1
MIC (Candida albicans): 2.18 µg/mL (≈ 3.71 µM) | MIC (Escherichia coli [28]): 1.61 µg/mL (≈ 2.74 µM) | MIC (Aspergillus niger [29]): 1.47 µg/mL (≈ 2.5 µM) | MIC (Pseudomonas aeruginosa [30]): 1.61 µg/mL (≈ 2.74 µM) | MIC (Staphylococcus aureus [31]): 1.61 µg/mL (≈ 2.74 µM)

COC(=O)c1cn(C2CC2)c2cc(N3CCN(Cc4cn(-c5ccc(C(C)=O)cc5)nn4)CC3)c(F)cc2c1=O
Ratio (Staphylococcus aureus [32]): 2 | MIC (Staphylococcus aureus [33]): 3.12 µg/mL (≈ 5.73 µM)

Nc1ccc(-c2nnc(-c3cn(C4CC4)c4cc(N5CCNCC5)c(F)cc4c3=O)o2)c(O)c1
MIC (Aspergillus fumigatus): 9.8 µg/mL (≈ 21.2 µM) | MIC (Aspergillus niger [34]): 9.8 µg/mL (≈ 21.2 µM) | MIC (Pseudomonas aeruginosa [35]): 0.3 µg/mL (≈ 0.649 µM) | MIC (Escherichia coli [13]): 0.3 µg/mL (≈ 0.649 µM)
